From patent US20240385182A1, “MASKED FLUOROGENIC LIPID COMPOUNDS, LIPID PARTICLES COMPRISING THE SAME, AND METHODS OF USE THEREOF” (Rutgers, The State University of New Jersey, priority 2023, published 2024) come the findings set out here.

Where only a bound is given, the exact number is not on record here.

The subject of one experiment is HeLa and RAW 264.7 cells. Put plainly: MTT cell viability assay. Type of experiment: cell-based. The note with it: 8-250 μM, 24-hour period. The protocol:
With a feasible liposome preparation and treatment protocol established for live cell imaging, attention was turned to assessing the cytocompatibility of the LNPs, with or without DPPC-TC-ONOO^−, DPPC-TC, and the oxa-spiro[4,5] decenone 6a. A standard 3-(4,5-dimethylthiazol-2-yl)-2,5-diphenyl tetrazolium bromide (MTT) cell viability assay in HeLa and RAW 264.7 cells treated with these molecules (8-250 μM) over a 24-hour period. The dose-response curves provided high IC50 values for each compound: DPPC-TC-ONOO− (≥100 μM), DPPC-TC (≥50 μM), and 6 (≥70 μM).
On the technique in general: Formazan colour is commonly taken as a measure of viable cells.

The test system of another experiment is HeLa cells. Put plainly: Confocal imaging and colocalization in live HeLa cells. The note with it: for fluorescence at 405/475 nm: LNPs. Type of experiment: cell-based. The protocol:
FIGS. 9A-9E: confocal imaging of lipid environments targeted by ONOO^− in live HeLa cells. Cells were seeded into glass microscope dishes, incubated with LNPs (50 μM) and stained with organelle trackers and/or actin dye prior to imaging. LNPs obtained from a 47.5:47.5:5.0 molar ratio of DOTMA, DOPE, and DPPC-TC-ONOO^−. FIG. 9A: cells treated with LNPs, stimulated with IFN-γ/LPS/PMA. Time coarse images acquired upon PMA treatment. FIG. 9B: cells treated with LNPs and 1400 W. FIG. 9C: cells treated with LNPs, then with 1400 W and IFN-γ/LPS/PMA. FIGS. 9D-9E: quantitative colocalization study of cells treated with LNPs and stimulated with IFN-γ/LPS/PMA. Pearson's correlation coefficient (PCC) was calculated for quantitative assessment. Organelle trackers: ER-Tracker™, MitoTracker™, CellLight™ Golgi-RFP, LysoTracker™. Cell cytoskeleton was assessed with CellMask™ Deep Red Actin Tracking Stain. DPPC-TC channel: 405/475 nm. Scale bars=20 μm (FIGS. 9A-9D) or 5 μm (FIG. 9E). With the utility of DPPC-TC-ONOO^− proven in synthetic protocell membranes, incorporation into live HeLa and RAW 264.7 cells was sought, which are relevant to redox-induced stress and have well-recognized pathways for RNS and ROS production. Lipid nanoparticles (LNPs) (˜100 nm in diameter) was used to deliver DPPC-TC-ONOO− into cells. This method circumvented the limited solubility of DPPC-TC-ONOO− due to the relatively hydrophobic butanone-coumarin motif. LNPs were obtained via sonication from 1,2-di-O-octadecenyl-3-trimethylammonium propane (DOTMA), 1,2-dioleoyl-sn-glycero-3-phosphoethanolamine (DOPE), and DPPC-TC-ONOO− (47.5:47.5:5.0 molar ratio), which were hydrated with a 300 mM sucrose solution. DOTMA and DOPE were chosen as the carrier lipids due to their cationic/zwitterionic natures, which has been postulated to enhance uptake through the cell membrane. The impact of different LNP compositions and incubation times on the cellular incorporation of DPPC-TC-ONOO^− was assessed. […] Specifically, LNPs containing greater than 10 mol % DPPC-TC-ONOO− were considerably more heterogenous in size (up to […] observed, in contrast to ˜100 nm) and nonuniform in vesicle lamellarity. Those with less than 4 mol % DPPC-TC-ONOO− led to insufficient fluorescence signal. To balance these counteracting factors, 5 mol % DPPC-TC-ONOO− was used, with 47.5 mol % DOTMA and DOPE, each. In these initial assays, cells were incubated with LNPs for up to 15 hours to complete the uptake and intracellular localization of DPPC-TC-ONOO−. Shorter incubation times (3-to-5 hours) led to its uptake but not subcellular localization. […] However, high serum concentration in DMEM caused interference between LNPs and serum-protein, resulting in aggregate formation as observed by microscopy. To overcome this obstacle, LNPs (50 μM) were used in a mixture of 2/3 volumetric ratio of sucrose solution and Opti-MEM™, a reduced serum medium known to increase the efficiency of lipofection. […] For a physiologically relevant stress model, the standard stimulation condition involving IFN-γ/LPS/PMA was employed. Treatment of cells with IFN-γ/LPS leads to the endogenous production of nitric oxide and PMA provokes increased levels of superoxide. These two reactive species combine to form peroxynitrite, as described elsewhere herein. […] The intracellular redox selectivity of DPPC-TC-ONOO^− was also assessed using N-(3-(aminomethyl)benzyl)-acetamidine, known as 1400 W, which inhibits the production of NO· by irreversibly binding to iNOS. […] To determine whether DPPC-TC-ONOO^− localizes and functions at a specific subcellular compartment in HeLa, a comprehensive colocalization study was performed with dyes specific for lipid-rich and membrane-enclosed organelles, including the ER, mitochondrion, Golgi apparatus, and lysosome (FIGS. 9D-9E). In addition, actin stain was used to gain a visual insight into the cytoskeletal structure of the whole cell. […]

Usually IC50 stands for the concentration that inhibits the measured activity by half. Low values mean greater potency in that assay, high ones weaker potency in that assay. Regarding `CCCCCCCCCCCCCCCC(=O)OCC(COP(=O)([O-])OCC[N+](C)(C)Cc1cn(-c2cc3ccc(OC(=O)Oc4ccc(CCC(=O)C(F)(F)F)cc4)cc3oc2=O)nn1)OC(=O)CCCCCCCCCCCCCCC` (racemic) [DPPC-TC-ONOO^−], the IC50 with HeLa and RAW 264.7 cells was ≥ 100 µM. In addition, the “signal in the DPPC-TC channel” value in the experiment on HeLa cells (1400 W only or 1400 W and IFN-γ/LPS/PMA) is recorded as “no observable signal”. Further, the “Pearson's correlation coefficient (PCC)” value in the experiment with HeLa cells (DPPC-TC signal vs ER-Tracker Green) came out at 0.938. The “fluorescence at 405/475 nm” value in the experiment with HeLa cells (no stimulation) is listed as “no observable signal”; with HeLa cells (stimulation with IFN-γ/LPS/PMA), “substantial increase in fluorescence”. Further, in the experiment with HeLa cells (dyes specific for Golgi, mitochondria, and lysosomes), the colocalization correlation entry is “less significant correlation”. Moreover, the “time point at which intracellular fluorescence was observable upon PMA addition” value in the experiment with HeLa cells (post IFN-γ/LPS stimulation, earliest possible image acquisition time) was determined as 3 min.
